Experimental data reported in the supplement of paper PMC13380429.

Experiments:
Conditions in all cases: 72 h
Caco-2 [1] = assay: cell viability relative to DMSO; higher = less toxic
Calu-3 [2] = assay: as above
HepG2 [3] = assay: as above
U2OS [4] = assay: as above
Caco-2 [5] = assay: relative viability EC50 (midpoint between 100% and the lowest measured viability); higher = less toxic
Calu-3 [6] = assay: as above
HepG2 [7] = assay: as above
U2OS [8] = assay: as above
Caco-2 [9] = assay: drug sensitivity score (DSS) for viability; higher = more toxic; extreme values may be limits of the assay
Calu-3 [10] = assay: as above
HepG2 [11] = assay: as above
U2OS [12] = assay: as above
Vero E6 [13] = assay: cell viability relative to DMSO; higher = less toxic
Vero E6 [14] = assay: relative viability EC50 (midpoint between 100% and the lowest measured viability); higher = less toxic
Vero E6 [15] = assay: drug sensitivity score (DSS) for viability; higher = more toxic; extreme values may be limits of the assay

Compound	cell viability (Caco-2 [1]; 1 nM)	cell viability (Caco-2 [1]; 10 nM)	cell viability (Caco-2 [1]; 100 nM)	cell viability (Caco-2 [1]; 1000 nM)	cell viability (Caco-2 [1]; 10000 nM)	cell viability (Calu-3 [2]; 1 nM)	cell viability (Calu-3 [2]; 10 nM)	cell viability (Calu-3 [2]; 100 nM)	cell viability (Calu-3 [2]; 1000 nM)	cell viability (Calu-3 [2]; 10000 nM)	cell viability (HepG2 [3]; 1 nM)	cell viability (HepG2 [3]; 10 nM)	cell viability (HepG2 [3]; 100 nM)	cell viability (HepG2 [3]; 1000 nM)	cell viability (HepG2 [3]; 10000 nM)	cell viability (U2OS [4]; 1 nM)	cell viability (U2OS [4]; 10 nM)	cell viability (U2OS [4]; 100 nM)	cell viability (U2OS [4]; 1000 nM)	cell viability (U2OS [4]; 10000 nM)	relative viability EC50 (Caco-2 [5])	relative viability EC50 (Calu-3 [6])	relative viability EC50 (HepG2 [7])	relative viability EC50 (U2OS [8])	drug sensitivity score (Caco-2 [9])	drug sensitivity score (Calu-3 [10])	drug sensitivity score (HepG2 [11])	drug sensitivity score (U2OS [12])	cell viability (Vero E6 [13]; 1 nM)	cell viability (Vero E6 [13]; 10 nM)	cell viability (Vero E6 [13]; 100 nM)	cell viability (Vero E6 [13]; 1000 nM)	cell viability (Vero E6 [13]; 10000 nM)	relative viability EC50 (Vero E6 [14])	drug sensitivity score (Vero E6 [15])
O=C1CN(/N=C/c2ccc(-c3ccc([N+](=O)[O-])cc3)o2)C(=O)N1 [dantrolene]	110%	97.1%	91.7%	97.8%	89.7%	102%	95%	106%	102%	112%	102%	101%	95.6%	101%	107%	96.8%	101%	96.1%	103%	95.6%	> 10 µM	> 10 µM	> 10 µM	> 10 µM	0	0	0	0							
O=C(Nc1ccc(CN2CCOCC2)cc1)c1ccc(-c2cccc(Cl)c2)o1	110%	102%	99.9%	104%	95.7%	98.3%	95.4%	97.3%	97.8%	91%	107%	104%	97.8%	93.7%	99.5%						> 10 µM	> 10 µM	> 10 µM		0	0	0		100%	100%	102%	99.4%	102%	> 10 µM	0
NC(=O)OCCCc1ccccc1 [phenprobamate]	104%	95.4%	99.1%	102%	104%						105%	109%	95%	98.6%	112%	102%	98.6%	103%	102%	98.9%	> 10 µM		> 10 µM	> 10 µM	0		0	0							
CC(C)=CCc1c(O)cc(O)c2c(=O)c(O)c(-c3ccc(C(F)(F)F)cc3)oc12 [SNG-1153]	92.1%	93.8%	98.1%	95.8%	40%	114%	89.6%	108%	99.3%	68.1%	97.3%	98.8%	106%	103%	40.2%	96.7%	94.7%	94.5%	99.9%	43.2%	2.6 µM		3.43 µM	3.14 µM	3.9	1.5	3	3.1	100%	94.3%	100%	93%	50.7%		3.8
C[C@@H](CN1CCC(n2c(=O)[nH]c3cc(Cl)ccc32)CC1)NC(=O)c1ccc2ccccc2c1	93.8%	105%	101%	97.4%	79.5%	102%	99.7%	96.2%	94.2%	82.1%	99.9%	102%	85.6%	94.1%	82.9%	106%	102%	100%	98.1%	91.1%	> 10 µM	> 10 µM	> 10 µM	> 10 µM	1	0.7	0.9	0							
COc1cc(NC(=O)c2ccccn2)ccc1Cl	100%	94.5%	95.3%	90.8%	92.3%						92.9%	99.2%	91%	102%	94.9%	100%	95.3%	101%	99.4%	96.3%	> 10 µM		> 10 µM	> 10 µM	0		0	0	101%	99%	96.3%	102%	95.3%	> 10 µM	0
O[C@@H](CN1CCNCC1)Cn1c2ccc(Br)cc2c2cc(Br)ccc21 [BAX-channel-blocker]	100%	104%	93.6%	87.7%	10.4%						91.2%	102%	90.4%	95%	0.2%	97.6%	102%	97.8%	93.9%	3.8%	2.06 µM		2.78 µM	2.66 µM	7		6.3	6.3	101%	96.5%	96.1%	92.9%	0.2%	2.59 µM	6.6
CCCC(C)NC(=O)c1ccc(Cl)c(Cl)c1 (configuration not stated)	120%	98%	104%	117%	94.5%	103%	77.1%	99%	77.4%	104%	97.1%	104%	92.8%	98%	98.6%						> 10 µM	> 10 µM	> 10 µM		0	0	0		104%	101%	99.3%	103%	99.8%	> 10 µM	0
